The test system of test [1] is HCV genotype 1b (Con1) replicon in HUH-7 cells. Description: HCV replicon luciferase reporter assay, genotype 1b. The format is cell-based. As to conditions: 3 days incubation. From the text:
An HCV replicon whole cell system was established as described by Lohmann V, Korner F, Koch J, Herian U, Theilmann L, Bartenschlager R., Science 285(5424):110-3 (1999) and modified to introduce a luciferase reporter, as first described by Krieger et al (Krieger N, Lohmann V, and Bartenschlager R, J. Virol. 75(10):4614-4624 (2001)). CDNA encoding a humanized form of the Renilla luciferase gene and a linker sequence fused directly to the 3′-end of the luciferase gene were introduced into the replicon construct using an Asc1 restriction site located in core, directly upstream of the neomycin marker gene. The adaptive mutation at position 1179 (serine to isoleucine) was also introduced (Blight K J, Kolykhalov, A A, Rice, C M, Science 290(5498):1972-1974). A stable cell line constitutively expressing this HCV replicon construct was generated by first linearizing plasmid DNAs with ScaI. RNA transcripts were synthesized in vitro using the T7 MegaScript transcription kit (Ambion, Austin, Tex.) according to manufacturer's directions. In vitro transcripts of the cDNA were transfected into the human hepatoma cell line, HUH-7. […] Resulting cell lines were characterized for positive and negative strand RNA production and protein production over time. […]
(§1) HCV replicon luciferase assays were developed to monitor the inhibitory effects of compounds described in the disclosure on HCV genotypes 1a and 1b viral replication. HUH-7 cells, constitutively expressing the HCV replicon, were grown in Dulbecco's Modified Eagle Media (DMEM) (Gibco-BRL) containing 10% Fetal calf serum (FCS) (Sigma) and 1 mg/mL G418 (Gibco-BRL). Compounds were serially diluted 3 folds in DMSO for a twenty-point titration and subsequently transferred to sterile 384-well tissue-culture treated plates (Corning cat #3571). The plates were then seeded with 50 μL of cells at a density of 3.0×10^3 cells/well in DMEM containing 4% FCS (final DMSO concentration at 0.5%). After 3 days incubation at 37° C., cells were analyzed for Renilla Luciferase activity using the EnduRen as substrate (Promega cat #E6485). The EnduRen substrate was diluted in DMEM and then added to the plates to a final concentration of 7.5 μM. The plates were incubated for 2 hrs at 37° C. and then read immediately for 30 seconds with Viewlux Imager (PerkinElmer) using a luminescence program. To assess cytotoxicity of compounds, CC50 values were generated by multiplexing the EnduRen-containing plates with Cell Titer-Blue (Promega, cat # G8082). Cell-Titer Blue (3 μL) was added to each well and incubated for 8 hrs at 37° C. The fluorescence signal from each well was read, with an excitation wavelength at 525/10 nm and an emission wavelength of 598/10 nm, using the Viewlux Imager.
(§2) The EC50 values for compounds were calculated by using a four-parameter logistic equation: y=A+((B−A)/(1+((C/x)^D))), where A and B denotes minimal and maximal % inhibition, respectively, C is the EC50, D is the hill slope and x represents compound concentration.
(In general: A replicon is a self-replicating genome or part of one, used to study replication in cells.)

Test [2] deals with HCV genotype 1a (H77 strain) replicon in HUH-7 cells. Kind of test: HCV replicon luciferase reporter assay, genotype 1a. Type of test: cell-based. As to conditions: 3 days incubation.
Source text: An HCV replicon whole cell system was established as described by Lohmann V, Korner F, Koch J, Herian U, Theilmann L, Bartenschlager R., Science 285(5424):110-3 (1999) and modified to introduce a luciferase reporter, as first described by Krieger et al (Krieger N, Lohmann V, and Bartenschlager R, J. Virol. 75(10):4614-4624 (2001)). CDNA encoding a humanized form of the Renilla luciferase gene and a linker sequence fused directly to the 3′-end of the luciferase gene were introduced into the replicon construct using an Asc1 restriction site located in core, directly upstream of the neomycin marker gene. The adaptive mutation at position 1179 (serine to isoleucine) was also introduced (Blight K J, Kolykhalov, A A, Rice, C M, Science 290(5498):1972-1974). A stable cell line constitutively expressing this HCV replicon construct was generated by first linearizing plasmid DNAs with ScaI. RNA transcripts were synthesized in vitro using the T7 MegaScript transcription kit (Ambion, Austin, Tex.) according to manufacturer's directions. In vitro transcripts of the cDNA were transfected into the human hepatoma cell line, HUH-7. […] Resulting cell lines were characterized for positive and negative strand RNA production and protein production over time.
A stable HCV replicon luciferase reporter cell line representing the genotype 1a H77 strain (Yanagi M, Purcell R H, Emerson S U, et al. Transcripts from a single full-length cDNA clone of hepatitis C virus are infectious when directly transfected into the liver of a chimpanzee. Proc Natl Acad Sci USA 1997; 94(16):8738-8743) was generated as described previously for the genotype 1b (Con1) replicon luciferase cell line. The replicon construct was modified by introducing mutations were introduced into the genes encoding the NS3 helicase domain (proline replaced by leucine at position 1496) and NS5A (serine to isoleucine at position 2204) to improve replication in cell culture.
as §1, §2

Setting [3] is: Hepatitis C virus, 72 h, HCV genotype 1b replicon luciferase reporter, range class, read-out: LE_1b (EC50, range).
[4] abbreviates: Hepatitis C virus, Huh-7, 72 h, HCV genotype 1a replicon luciferase reporter, range class, read-out: LE_1a (EC50, range).

Like-named read-outs stand apart in the source and are kept apart here. Bounds are passed on as bounds.

For “1,1,1-trifluoro-2-methylpropan-2-yl ((2R,6S,7R,9S,13aS,14aR,16aS,Z)-7-ethyl-14a-(((1-(fluoromethyl)cyclopropyl)sulfonyl)carbamoyl)-9-methyl-2-((4-methyl-3,4-dihydro-2H-[1,4]oxazino[2,3-f]isoquinolin-7-yl)oxy)-5,16-dioxo-1,2,3,5,6,7,8,9,10,11,13a,14,14a,15,16,16a-hexadecahydrocyclopropa[e]pyrrolo[1,2-a][1,4]diazacyclopentadecin-6-yl)carbamate [Compound 5319]”, the concentration giving a half-maximal response (EC50) – broadly, the concentration at which the effect is half-maximal – in test [1] (HCV genotype 1b replicon luciferase, read-out: LE_1b (EC50)) was 14.2 nM; in test [2] (HCV genotype 1a replicon luciferase, read-out: LE_1a (EC50)), 33.6 nM.

In the case of `COc1cnc(O[C@@H]2C[C@H]3C(=O)N[C@]4(C(=O)NS(=O)(=O)C5CC5)C[C@H]4/C=C\CC[C@@H](C)C[C@@H](C)[C@H](NC(=O)OC(C)(C)C(F)(F)F)C(=O)N3C2)c2ccccc12` [Compound 3, 1,1,1-trifluoro-2-methylpropan-2-yl ((2R,6S,7R,9R,13aS,14aR,16aS,Z)-14a-((cyclopropylsulfonyl)carbamoyl)-2-((4-methoxyisoquinolin-1-yl)oxy)-7,9-dimethyl-5,16-dioxo-1,2,3,5,6,7,8,9,10,11,13a,14,14a,15,16,16a-hexadecahydrocyclopropa[e]pyrrolo[1,2-a][1,4]diazacyclopentadecin-6-yl)carbamate], the concentration for a half-maximal effect (EC50) in test [1] (setting [3]) and in test [2] (setting [4]) was below 5.46 nM each time.

As to `COCCOc1cc2c(Cl)cccc2c(O[C@@H]2C[C@H]3C(=O)N[C@]4(C(=O)NS(=O)(=O)C5(C)CC5)C[C@H]4/C=C\CC[C@@H](C)C[C@@H](C)[C@H](NC(=O)OC(C)(C)C(F)(F)F)C(=O)N3C2)n1` [Compound 1114, 1,1,1-trifluoro-2-methylpropan-2-yl ((2R,6S,7R,9R,13aS,14aR,16aS,Z)-2-((5-chloro-3-(2-methoxyethoxyl)isoquinolin-1-yl)oxy)-7,9-dimethyl-14a-(((1-methylcyclopropyl)sulfonyl)carbamoyl)-5,16-dioxo-1,2,3,5,6,7,8,9,10,11,13a,14,14a,15,16,16a-hexadecahydrocyclopropa[e]pyrrolo[1,2-a][1,4]diazacyclopentadecin-6-yl)carbamate], the EC50 in test [1] (setting [3]) and in test [2] (setting [4]) was below 5.46 nM each time.

With `C[C@@H]1CCC[C@H](O)[C@@H]2C[C@@]2(C(=O)NS(=O)(=O)C2(C)CC2)NC(=O)[C@@H]2C[C@@H](Oc3ncc(OC4CC4)c4ccccc34)CN2C(=O)[C@@H](NC(=O)OC(C)(C)C(F)(F)F)[C@H](C)C1` [Compound 2002, 1,1,1-trifluoro-2-methylpropan-2-yl ((2R,6S,7R,9R,13S,13aR,14aR,16aS)-2-((4-cyclopropoxyisoquinolin-1-yl)oxy)-13-hydroxy-7,9-dimethyl-14a-(((1-methylcyclopropyl)sulfonyl)carbamoyl)-5,16-dioxooctadecahydrocyclopropa[e]pyrrolo[1,2-a][1,4]diazacyclopentadecin-6-yl)carbamate], the 50% effective concentration (EC50) in test [1] (setting [3]) and in test [2] (setting [4]) was 4.82 to 103 nM each time.

In the case of `COc1ccc2c(O[C@@H]3C[C@H]4C(=O)N[C@]5(C(=O)NS(=O)(=O)C6(C)CC6)C[C@H]5/C=C\CC[C@H](C)C[C@@H](C)[C@H](NC(=O)OC(C)(C)C(F)(F)F)C(=O)N4C3)nc(N(C)C)cc2c1` [Compound 3116, 1,1,1-trifluoro-2-methylpropan-2-yl ((2R,6S,7R,9S,13aS,14aR,16aS,Z)-2-((3-(dimethylamino)-6-methoxyisoquinolin-1-yl)oxy)-7,9-dimethyl-14a-(((1-methylcyclopropyl)sulfonyl)carbamoyl)-5,16-dioxo-1,2,3,5,6,7,8,9,10,11,13a,14,14a,15,16,16a-hexadecahydrocyclopropa[e]pyrrolo[1,2-a][1,4]diazacyclopentadecin-6-yl)carbamate], the concentration giving a half-maximal response (EC50) was below 5.46 nM in test [1] (setting [3]) and 4.82 to 103 nM in test [2] (setting [4]).

As for `COc1ccc2c(O[C@@H]3C[C@H]4C(=O)N[C@]5(C(=O)NS(=O)(=O)C6(C)CC6)C[C@H]5/C=C\CC[C@@H](C)C[C@@H](C)[C@H](NC(=O)OC(C)(C)C(F)(F)F)C(=O)N4C3)nc(N(C)C)cc2c1` [Compound 3117, 1,1,1-trifluoro-2-methylpropan-2-yl ((2R,6S,7R,9R,13aS,14aR,16aS,Z)-2-((3-(dimethylamino)-6-methoxyisoquinolin-1-yl)oxy)-7,9-dimethyl-14a-(((1-methylcyclopropyl)sulfonyl)carbamoyl)-5,16-dioxo-1,2,3,5,6,7,8,9,10,11,13a,14,14a,15,16,16a-hexadecahydrocyclopropa[e]pyrrolo[1,2-a][1,4]diazacyclopentadecin-6-yl)carbamate], the EC50 in test [1] (setting [3]) and in test [2] (setting [4]) was below 5.46 nM each time.

With `COc1ccc2c(O[C@@H]3C[C@H]4C(=O)N[C@]5(C(=O)NS(=O)(=O)C6(CF)CC6)C[C@H]5/C=C\CC[C@@H](C)C[C@@H](C)[C@H](NC(=O)OC(C)(C)C(C)(F)F)C(=O)N4C3)nc(N(C)C)cc2c1` [Compound 3125, 3,3-difluoro-2-methylbutan-2-yl ((2R,6S,7R,9R,13aS,14aR,16aS,Z)-2-((3-(dimethylamino)-6-methoxyisoquinolin-1-yl)oxy)-14a-(((1-(fluoromethyl)cyclopropyl)sulfonyl)carbamoyl)-7,9-dimethyl-5,16-dioxo-1,2,3,5,6,7,8,9,10,11,13a,14,14a,15,16,16a-hexadecahydrocyclopropa[e]pyrrolo[1,2-a][1,4]diazacyclopentadecin-6-yl)carbamate], the 50% effective concentration (EC50) in test [1] (setting [3]) is below 5.46 nM; in test [2] (setting [4]), 4.82 to 103 nM.

On to `COc1ccc2c(O[C@@H]3C[C@H]4C(=O)N[C@]5(C(=O)NS(=O)(=O)C6(CF)CC6)C[C@H]5/C=C\CC[C@H](C)C[C@@H](C)[C@H](NC(=O)OC(C)(C)C(F)(F)F)C(=O)N4C3)nc(N(C)C)cc2c1` [Compound 3126, 1,1,1-trifluoro-2-methylpropan-2-yl ((2R,6S,7R,9S,13aS,14aR,16aS,Z)-2-((3-(dimethylamino)-6-methoxyisoquinolin-1-yl)oxy)-14a-(((1-(fluoromethyl)cyclopropyl)sulfonyl)carbamoyl)-7,9-dimethyl-5,16-dioxo-1,2,3,5,6,7,8,9,10,11,13a,14,14a,15,16,16a-hexadecahydrocyclopropa[e]pyrrolo[1,2-a][1,4]diazacyclopentadecin-6-yl)carbamate], for which the EC50 in test [1] (setting [3]) and in test [2] (setting [4]) was 4.82 to 103 nM in each case.

For the origin of these results see patent US9527885B2, “Hepatitis C virus inhibitors” (BRISTOL-MYERS SQUIBB COMPANY, priority 2011, dated 2016).
